Reference: PubChem BioAssay AID1919013 (Molecular Pharmacology Branch, DTP, NCI, 2023)
Where “and” joins values, the source holds several entries; their conditions need not be identical. Identical values can stand only once. One block for each compound: values may come before it.

System: LG0703-F498-PDC complex spheroid growth
Experiment: Anticancer human tumor LG0703-F498-PDC patient-derived lung adenocarcinoma cell line growth inhibition [AhR]
Settings: for viability, T/C: stronger effect = lower value
Text: Multicellular complex tumor spheroid response to aryl hydrocarbon receptor antagonists in combination with a variety of drugs and investigational agents in selected tumor cell lines
The current study was undertaken to assess response to aryl hydrocarbon receptor antagonists in combination with standard-of-care drugs and investigational agents in solid tumor complex spheroid models. Complex spheroids include a stromal component modeled by human endothelial cells (HUVEC) and fibroblasts modeled by human mesenchymal stem cells (MSCs). The concentration ranges selected for each drug and investigational agent were based upon clinically achievable concentrations if the clinical Cmax of the agent was known.
Compounds. The drugs and investigational agents: BAY 2416964 (NSC825713), GNF351 (NSC835774), CH-223191 (NSC835775), CPI-455 (NSC825282), aza-TdCyd (NSC777586), decitabine (NSC127716), belinostat (NSC758774), entinostat (NSC756642), pevonedistat (NSC761192), tazemetostat (NSC777109), talazoparib (NSC765396), olaparib (NSC753686), selinexor (NSC780203), nedisertib (M3814, NSC802822), bortezomib (NSC756655), venetoclax (NSC766270), doxorubicin (NSC123127), elimusertib (BAY189344, NSC800525), ceralasertib (AZD6738, NSC777638), TAK-243 (NSC785004), alisertib (NSC759677), etoposide (NSC141540), topotecan (NSC609699), eribulin (NSC707389), gemcitabine (NSC613327), carboplatin (NSC241240), cisplatin (NSC119875), and SN-38 (NSC673596) were obtained from the National Cancer Institute (NCI) Developmental Therapeutics Program Chemical Repository (32). The FDA-approved anticancer drug set is available from the Developmental Therapeutics Program at https://dtp.cancer.gov/organization/dscb/obtaining/available plates.htm. […] The stock solutions were prepared in dimethyl sulfoxide (DMSO, Sigma-Aldrich, St. Louis, MO, cat. D2650), except for the platinum compounds which were prepared in saline (Quality Biological, Gaithersburg, MD, cat. 114-055-101), at 800-fold the tested concentration and stored at -70 degrees C prior to their use. All drugs and investigational agents were tested over a range starting from a high concentration at or near the clinical Cmax and decreasing in half-log increments. If the clinical Cmax for an agent had not been determined, the highest concentration tested was 10 microM (Table 1).
Cell Culture. All cells were maintained in an incubator at 37 degrees C and 5% CO2 with 95% humidity. The PDC lines were cultured according to standard operating procedures established by the NCI PDMR (https://pdmr.cancer.gov). Briefly, all PDCs were thawed and cultured in Matrigel-coated flasks prepared with a working solution of 1X Ham's F-12 nutrient mix, without supplementation (Invitrogen, Waltham, MA, cat. 11765054), 100 U/mL penicillin-streptomycin (Invitrogen, cat. 15140122), and 2.5% Matrigel (Corning Inc., Corning, NY, cat. 354248) for the first three passages. All PDCs were cultured in complete DMEM/F-12 media containing advanced DMEM/F-12 (Invitrogen, cat. 12634028), 4.9% defined fetal bovine serum, heat inactivated (HyClone Laboratories Inc., Logan, UT, cat. SH30070.03HI), 389 ng/mL hydrocortisone (Sigma-Aldrich, cat. H4001), 9.7 ng/mL human EGF recombinant protein (Invitrogen, cat. PHG0313), 23.4 microg/mL adenine (Sigma-Aldrich, cat. A2786), 97.3 U/mL penicillin-streptomycin (Invitrogen, cat. 15140122), 1.9 mM L-glutamine (Invitrogen, cat. 25030081), and 9.7 microM Y-27632 dihydrochloride (Tocris Bioscience, Bristol, United Kingdom, cat. 1254). The PDCs were cultured in complete DMEM/F12 media without 10 microM Y-27632 dihydrochloride for at least two passages prior to the screen. The established cell lines NCI-H1341 and […] were cultured in DMEM/F-12, HEPES (Invitrogen, cat. 11330032), 5% defined fetal bovine serum (HyClone Laboratories Inc., cat. SH30070.03), ITS premix universal culture supplement [insulin (5 microg/mL), transferrin (5 microg/mL), and selenious acid (5 ng/mL)] […]

[1] = curve of first compound, second compound 0.1 µM
[2] = curve of first compound, second compound 0.316 µM
[3] = curve of first compound, second compound 1 µM
[4] = curve of first compound, second compound 3.16 µM
[5] = curve of first compound, second compound 10 µM
[6] = second compound 0.1 µM, first compound 0.0316 µM
[7] = second compound 0.1 µM, first compound 0.1 µM
[8] = second compound 0.1 µM, first compound 0.316 µM
[9] = second compound 0.1 µM, first compound 1 µM
[10] = second compound 0.1 µM, first compound 3.16 µM
[11] = second compound 0.1 µM, first compound 10 µM
[12] = second compound 0.316 µM, first compound 0.0316 µM
[13] = second compound 0.316 µM, first compound 0.1 µM
[14] = second compound 0.316 µM, first compound 0.316 µM
[15] = second compound 0.316 µM, first compound 1 µM
[16] = second compound 0.316 µM, first compound 3.16 µM
[17] = second compound 0.316 µM, first compound 10 µM
[18] = second compound 1 µM, first compound 0.0316 µM
[19] = second compound 1 µM, first compound 0.1 µM
[20] = second compound 1 µM, first compound 0.316 µM
[21] = second compound 1 µM, first compound 1 µM
[22] = second compound 1 µM, first compound 3.16 µM
[23] = second compound 1 µM, first compound 10 µM
[24] = second compound 3.16 µM, first compound 0.0316 µM
[25] = second compound 3.16 µM, first compound 0.1 µM
[26] = second compound 3.16 µM, first compound 0.316 µM
[27] = second compound 3.16 µM, first compound 1 µM
[28] = second compound 3.16 µM, first compound 3.16 µM
[29] = second compound 3.16 µM, first compound 10 µM
[30] = second compound 10 µM, first compound 0.0316 µM
[31] = second compound 10 µM, first compound 0.1 µM
[32] = second compound 10 µM, first compound 0.316 µM
[33] = second compound 10 µM, first compound 1 µM
[34] = second compound 10 µM, first compound 3.16 µM
[35] = second compound 10 µM, first compound 10 µM
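Also: luminescence taken as a proxy for viable cell amount.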
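For viability, T/C in this document: percent of DMSO vehicle control where 100% means growth equal to vehicle.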

Compound: CC1(C)CCC(CN2CCN(c3ccc(C(=O)NS(=O)(=O)c4ccc(NCC5CCOCC5)c([N+](=O)[O-])c4)c(Oc4cnc5[nH]ccc5c4)c3)CC2)=C(c2ccc(Cl)cc2)C1 + CC(CO)NC(=O)c1cc(-c2ccc(Cl)cc2)nn(-c2cnn(C)c2)c1=O
IC50 [1]: 5.91 µM
IC50 [2]: 5.65 µM
IC50 [3]: 5.8 µM
IC50 [4]: 5.48 µM
IC50 [5]: 5.13 µM
viability, T/C [6]: 92.1%
viability, T/C [7]: 99.7%
viability, T/C [8]: 89.5%
viability, T/C [9]: 85.6%
viability, T/C [10]: 87.4%
viability, T/C [11]: 18.4%
viability, T/C [12]: 106%
viability, T/C [13]: 108%
viability, T/C [14]: 86.8%
viability, T/C [15]: 82.4%
viability, T/C [16]: 86%
viability, T/C [17]: 20.5%
viability, T/C [18]: 85.6%
viability, T/C [19]: 97.4%
viability, T/C [20]: 90.3%
viability, T/C [21]: 92.7%
viability, T/C [22]: 85.4%
viability, T/C [23]: 18.2%
viability, T/C [24]: 82.2%
viability, T/C [25]: 80.1%
viability, T/C [26]: 90.1%
viability, T/C [27]: 90.2%
viability, T/C [28]: 78.7%
viability, T/C [29]: 18.3%
viability, T/C [30]: 75.8%
viability, T/C [31]: 80.1%
viability, T/C [32]: 77.2%
viability, T/C [33]: 78.2%
viability, T/C [34]: 73.2%
viability, T/C [35]: 17.9%

Compound: CC[C@@]1(O)C(=O)OCc2c1cc1n(c2=O)Cc2cc3c(CN(C)C)c(O)ccc3nc2-1
viability, T/C (compound 0.000316 µM): 104% and 108% and 106%
viability, T/C (compound 0.001 µM): 112% and 105% and 93.5%
viability, T/C (compound 0.00316 µM): 100% and 102% and 95.9%
viability, T/C (compound 0.01 µM): 90.5% and 93.7% and 90%
viability, T/C (compound 0.0316 µM): 85.8% and 111% and 87.9%
viability, T/C (compound 0.1 µM): 68.1% and 69.4% and 73.8%
IC50 (curve of compound): > 0.1 µM

Compound: CC(C)c1c(-c2ccccc2)nc2c(C#N)c[nH]n2c1=O
viability, T/C (compound 0.0316 µM): 101% and 99.1% and 108%
viability, T/C (compound 0.1 µM): 96.1% and 98.3% and 103%
viability, T/C (compound 0.316 µM): 105% and 107% and 103%
viability, T/C (compound 1 µM): 87% and 102% and 104%
viability, T/C (compound 3.16 µM): 88.2% and 91.2% and 91.7%
viability, T/C (compound 10 µM): 99.6% and 90.7% and 93.6%
IC50 (curve of compound): > 10 µM

Now from value to compound, other results behind:

IC50 [1]: > 10 µM
IC50 [2]: > 10 µM
IC50 [3]: > 10 µM
IC50 [4]: < 0.0316 µM
IC50 [5]: < 0.0316 µM
Compound: O=C(c1cc(Cc2n[nH]c(=O)c3ccccc23)ccc1F)N1CCN(C(=O)C2CC2)CC1 + Cc1cncc(-c2nc(NCCc3c[nH]c4ccccc34)c3ncn(C(C)C)c3n2)c1
viability, T/C [6]: 105%
viability, T/C [7]: 98.5%
viability, T/C [8]: 99.3%
viability, T/C [9]: 84.1%
viability, T/C [10]: 93.4%
viability, T/C [11]: 72.5%
viability, T/C [12]: 90.7%
viability, T/C [13]: 103%
viability, T/C [14]: 95%
viability, T/C [15]: 95.5%
viability, T/C [16]: 89.4%
viability, T/C [17]: 80.8%
viability, T/C [18]: 108%
viability, T/C [19]: 95.9%
viability, T/C [20]: 99.8%
viability, T/C [21]: 99.4%
viability, T/C [22]: 98.3%
viability, T/C [23]: 78.1%
viability, T/C [24]: 40.2%
viability, T/C [25]: 43.1%
viability, T/C [26]: 51.7%
viability, T/C [27]: 46.2%
viability, T/C [28]: 40%
viability, T/C [29]: 43%
viability, T/C [30]: 0.8%
viability, T/C [31]: 0.83%
viability, T/C [32]: 0.8%
viability, T/C [33]: 0.79%
viability, T/C [34]: 0.66%
viability, T/C [35]: 1.47%

IC50 (curve of compound): > 0.1 µM
Compound: Cn1ncnc1C1c2n[nH]c(=O)c3cc(F)cc(c23)NC1c1ccc(F)cc1 (stereo unspecified)
viability, T/C (compound 0.000316 µM): 97.7% and 91.1% and 110%
viability, T/C (compound 0.001 µM): 106% and 103% and 98.6%
viability, T/C (compound 0.00316 µM): 96.4% and 111% and 102%
viability, T/C (compound 0.01 µM): 94% and 97.9% and 89.2%
viability, T/C (compound 0.0316 µM): 107% and 106% and 95.7%
viability, T/C (compound 0.1 µM): 86.6% and 102% and 90%
